{"source": "ChEMBL document CHEMBL1151757", "about": "“Synthesis, radiosynthesis, and biological evaluation of fluorine-18-labeled 2beta-carbo(fluoroalkoxy)-3beta-(3'-((Z)-2-haloethenyl)phenyl)nortropanes: candidate radioligands for in vivo imaging of the serotonin transporter with positron emission tomography” (J Med Chem, 2008)", "data": [{"tested_on": "Thalamus", "experiment": "Drug uptake in anesthetized cynomolgus monkey brain thalamus after 12.5 mins postinjection", "type": "ADME, organism-based, Macaca fascicularis", "design": "unit not given here", "details": "in vivo", "values": [{"molecule": "O=C(OCC[18F])C1C2CCC(CC1c1cccc(/C=C\\Br)c1)N2", "note": "(centres undefined)", "Drug uptake": 3}]}, {"tested_on": "Pons", "experiment": "Drug uptake in anesthetized cynomolgus monkey brain pons after 0.5 mins postinjection", "type": "ADME, organism-based, Macaca fascicularis", "details": "in vivo", "values": [{"molecule": "O=C(OCC[18F])C1C2CCC(CC1c1cccc(/C=C\\Br)c1)N2", "note": "(centres undefined)", "Drug uptake": 0.01}]}, {"tested_on": "not listed separately", "experiment": "Drug uptake in anesthetized cynomolgus monkey brain cerebellum after 195 mins postinjection", "type": "ADME, organism-based, Macaca fascicularis", "details": "in vivo, 3.25 h", "values": [{"molecule": "O=C(OCC[18F])C1C2CCC(CC1c1cccc(/C=C\\Br)c1)N2", "note": "(centres undefined)", "Drug uptake": 1.79}]}, {"tested_on": "Medulla", "experiment": "Drug uptake in anesthetized cynomolgus monkey brain medulla after 205 mins postinjection", "type": "ADME, organism-based, Macaca fascicularis", "details": "in vivo", "values": [{"molecule": "O=C(OCC[18F])C1C2CCC(CC1c1cccc(/C=C\\Br)c1)N2", "note": "(centres undefined)", "Drug uptake": 3.14}]}, {"tested_on": "Medulla", "experiment": "Drug uptake in anesthetized cynomolgus monkey brain medulla after 65 mins postinjection", "type": "ADME, organism-based, Macaca fascicularis", "details": "in vivo", "values": [{"molecule": "O=C(OCC[18F])C1C2CCC(CC1c1cccc(/C=C\\Br)c1)N2", "note": "(centres undefined)", "Drug uptake": 4.81}]}, {"tested_on": "Midbrain", "experiment": "Drug uptake in anesthetized cynomolgus monkey brain midbrain after 125 mins postinjection", "type": "ADME, organism-based, Macaca fascicularis", "design": "unit not given here", "details": "in vivo", "values": [{"molecule": "O=C(OCC[18F])C1C2CCC(CC1c1cccc(/C=C\\Br)c1)N2", "note": "(centres undefined)", "Drug uptake": 4.73}]}, {"tested_on": "Pons", "experiment": "Drug uptake in anesthetized cynomolgus monkey brain pons after 27.5 mins postinjection", "type": "ADME, organism-based, Macaca fascicularis", "details": "in vivo", "values": [{"molecule": "O=C(OCC[18F])C1C2CCC(CC1c1cccc(/C=C\\Br)c1)N2", "note": "(centres undefined)", "Drug uptake": 4.1}]}, {"tested_on": "Thalamus", "experiment": "Drug uptake in anesthetized cynomolgus monkey brain thalamus after 235 mins postinjection", "type": "ADME, organism-based, Macaca fascicularis", "design": "unit not given here", "details": "in vivo", "values": [{"molecule": "O=C(OCC[18F])C1C2CCC(CC1c1cccc(/C=C\\Br)c1)N2", "note": "(centres undefined)", "Drug uptake": 2.88}]}, {"tested_on": "not listed separately", "experiment": "Drug uptake in anesthetized cynomolgus monkey brain frontal lobe after 165 mins postinjection", "type": "ADME, organism-based, Macaca fascicularis", "details": "in vivo, 2.75 h", "values": [{"molecule": "O=C(OCC[18F])C1C2CCC(CC1c1cccc(/C=C\\Br)c1)N2", "note": "(centres undefined)", "Drug uptake": 2.38}]}, {"tested_on": "Thalamus", "experiment": "Drug uptake in anesthetized cynomolgus monkey brain thalamus after 215 mins postinjection", "type": "ADME, organism-based, Macaca fascicularis", "design": "unit not given here", "details": "in vivo", "values": [{"molecule": "O=C(OCC[18F])C1C2CCC(CC1c1cccc(/C=C\\Br)c1)N2", "note": "(centres undefined)", "Drug uptake": 2.92}]}, {"tested_on": "not listed separately", "experiment": "Ratio of drug uptake in occipital lobe to cerebellum in anesthetized cynomolgus monkey after 185 mins postinjection", "type": "ADME, organism-based, Macaca fascicularis", "details": "in vivo", "values": [{"molecule": "O=C(OCC[18F])C1C2CCC(CC1c1cccc(/C=C\\Br)c1)N2", "note": "(centres undefined)", "Ratio": 1.3}]}, {"tested_on": "Caudate", "experiment": "Drug uptake in anesthetized cynomolgus monkey brain caudate after 175 mins postinjection", "type": "ADME, organism-based, Macaca fascicularis, Caudate nucleus", "details": "in vivo", "values": [{"molecule": "O=C(OCC[18F])C1C2CCC(CC1c1cccc(/C=C\\Br)c1)N2", "note": "(centres undefined)", "Drug uptake": 3.29}]}, {"tested_on": "not listed separately", "experiment": "Ratio of drug uptake in putamen to cerebellum in anesthetized cynomolgus monkey after 155 mins postinjection", "type": "ADME, organism-based, Macaca fascicularis", "details": "in vivo", "values": [{"molecule": "O=C(OCC[18F])C1C2CCC(CC1c1cccc(/C=C\\Br)c1)N2", "note": "(centres undefined)", "Ratio": 1.8}]}, {"tested_on": "Caudate", "experiment": "Drug uptake in anesthetized cynomolgus monkey brain caudate after 15.5 mins postinjection", "type": "ADME, organism-based, Macaca fascicularis, Caudate nucleus", "details": "in vivo", "values": [{"molecule": "O=C(OCC[18F])C1C2CCC(CC1c1cccc(/C=C\\Br)c1)N2", "note": "(centres undefined)", "Drug uptake": 2.89}]}, {"tested_on": "not listed separately", "experiment": "Ratio of drug uptake in midbrain to cerebellum in anesthetized cynomolgus monkey after 225 mins postinjection", "type": "ADME, organism-based, Macaca fascicularis", "details": "in vivo, 3.75 h", "values": [{"molecule": "O=C(OCC[18F])C1C2CCC(CC1c1cccc(/C=C\\Br)c1)N2", "note": "(centres undefined)", "Ratio": 2.3}]}, {"tested_on": "not listed separately", "experiment": "Drug uptake in anesthetized cynomolgus monkey brain frontal lobe after 65 mins postinjection", "type": "ADME, organism-based, Macaca fascicularis", "details": "in vivo", "values": [{"molecule": "O=C(OCC[18F])C1C2CCC(CC1c1cccc(/C=C\\Br)c1)N2", "note": "(centres undefined)", "Drug uptake": 2.94}]}, {"tested_on": "not listed separately", "experiment": "Drug uptake in anesthetized cynomolgus monkey brain frontal lobe after 75 mins postinjection", "type": "ADME, organism-based, Macaca fascicularis", "details": "in vivo, 1.25 h", "values": [{"molecule": "O=C(OCC[18F])C1C2CCC(CC1c1cccc(/C=C\\Br)c1)N2", "note": "(centres undefined)", "Drug uptake": 2.86}]}, {"tested_on": "not listed separately", "experiment": "Drug uptake in anesthetized cynomolgus monkey brain frontal lobe after 45 mins postinjection", "type": "ADME, organism-based, Macaca fascicularis", "details": "in vivo, 0.75 h", "values": [{"molecule": "O=C(OCC[18F])C1C2CCC(CC1c1cccc(/C=C\\Br)c1)N2", "note": "(centres undefined)", "Drug uptake": 2.85}]}, {"tested_on": "not listed separately", "experiment": "Ratio of drug uptake in thalamus to cerebellum in anesthetized cynomolgus monkey after 95 mins postinjection", "type": "ADME, organism-based, Macaca fascicularis", "details": "in vivo", "values": [{"molecule": "O=C(OCC[18F])C1C2CCC(CC1c1cccc(/C=C\\Br)c1)N2", "note": "(centres undefined)", "Ratio": 1.4}]}, {"tested_on": "Caudate", "experiment": "Drug uptake in anesthetized cynomolgus monkey brain caudate after 3.5 mins postinjection", "type": "ADME, organism-based, Macaca fascicularis, Caudate nucleus", "details": "in vivo", "values": [{"molecule": "O=C(OCC[18F])C1C2CCC(CC1c1cccc(/C=C\\Br)c1)N2", "note": "(centres undefined)", "Drug uptake": 0.63}]}, {"tested_on": "not listed separately", "experiment": "Drug uptake in anesthetized cynomolgus monkey brain frontal lobe after 4.5 mins postinjection", "type": "ADME, organism-based, Macaca fascicularis", "details": "in vivo, 0.075 h", "values": [{"molecule": "O=C(OCC[18F])C1C2CCC(CC1c1cccc(/C=C\\Br)c1)N2", "note": "(centres undefined)", "Drug uptake": 1.02}]}, {"tested_on": "Putamen", "experiment": "Drug uptake in anesthetized cynomolgus monkey brain putamen after 205 mins postinjection", "type": "ADME, organism-based, Macaca fascicularis", "details": "in vivo", "values": [{"molecule": "O=C(OCC[18F])C1C2CCC(CC1c1cccc(/C=C\\Br)c1)N2", "note": "(centres undefined)", "Drug uptake": 3.42}]}, {"tested_on": "not listed separately", "experiment": "Ratio of drug uptake in thalamus to cerebellum in anesthetized cynomolgus monkey after 195 mins postinjection", "type": "ADME, organism-based, Macaca fascicularis", "details": "in vivo, 3.25 h", "values": [{"molecule": "O=C(OCC[18F])C1C2CCC(CC1c1cccc(/C=C\\Br)c1)N2", "note": "(centres undefined)", "Ratio": 1.8}]}, {"tested_on": "not listed separately", "experiment": "Drug uptake in anesthetized cynomolgus monkey brain occipital lobe after 4.5 mins postinjection", "type": "ADME, organism-based, Macaca fascicularis", "details": "in vivo, 0.075 h", "values": [{"molecule": "O=C(OCC[18F])C1C2CCC(CC1c1cccc(/C=C\\Br)c1)N2", "note": "(centres undefined)", "Drug uptake": 1.32}]}, {"tested_on": "not listed separately", "experiment": "Ratio of drug uptake in pons to cerebellum in anesthetized cynomolgus monkey after 105 mins postinjection", "type": "ADME, organism-based, Macaca fascicularis", "details": "in vivo, 1.75 h", "values": [{"molecule": "O=C(OCC[18F])C1C2CCC(CC1c1cccc(/C=C\\Br)c1)N2", "note": "(centres undefined)", "Ratio": 1.5}]}, {"tested_on": "Midbrain", "experiment": "Drug uptake in anesthetized cynomolgus monkey brain midbrain after 85 mins postinjection", "type": "ADME, organism-based, Macaca fascicularis", "design": "unit not given here", "details": "in vivo", "values": [{"molecule": "O=C(OCC[18F])C1C2CCC(CC1c1cccc(/C=C\\Br)c1)N2", "note": "(centres undefined)", "Drug uptake": 4.9}]}, {"tested_on": "Putamen", "experiment": "Drug uptake in anesthetized cynomolgus monkey brain putamen after 3.5 mins postinjection", "type": "ADME, organism-based, Macaca fascicularis", "details": "in vivo", "values": [{"molecule": "O=C(OCC[18F])C1C2CCC(CC1c1cccc(/C=C\\Br)c1)N2", "note": "(centres undefined)", "Drug uptake": 1}]}, {"tested_on": "Medulla", "experiment": "Drug uptake in anesthetized cynomolgus monkey brain medulla after 175 mins postinjection", "type": "ADME, organism-based, Macaca fascicularis", "details": "in vivo", "values": [{"molecule": "O=C(OCC[18F])C1C2CCC(CC1c1cccc(/C=C\\Br)c1)N2", "note": "(centres undefined)", "Drug uptake": 3.62}]}, {"tested_on": "not listed separately", "experiment": "Drug uptake in anesthetized cynomolgus monkey brain cerebellum after 225 mins postinjection", "type": "ADME, organism-based, Macaca fascicularis", "details": "in vivo, 3.75 h", "values": [{"molecule": "O=C(OCC[18F])C1C2CCC(CC1c1cccc(/C=C\\Br)c1)N2", "note": "(centres undefined)", "Drug uptake": 1.64}]}, {"tested_on": "not listed separately", "experiment": "Drug uptake in anesthetized cynomolgus monkey brain occipital lobe after 65 mins postinjection", "type": "ADME, organism-based, Macaca fascicularis", "details": "in vivo", "values": [{"molecule": "O=C(OCC[18F])C1C2CCC(CC1c1cccc(/C=C\\Br)c1)N2", "note": "(centres undefined)", "Drug uptake": 3.45}]}, {"tested_on": "not listed separately", "experiment": "Ratio of drug uptake in midbrain to cerebellum in anesthetized cynomolgus monkey after 95 mins postinjection", "type": "ADME, organism-based, Macaca fascicularis", "details": "in vivo", "values": [{"molecule": "O=C(OCC[18F])C1C2CCC(CC1c1cccc(/C=C\\Br)c1)N2", "note": "(centres undefined)", "Ratio": 1.6}]}, {"tested_on": "not listed separately", "experiment": "Ratio of drug uptake in midbrain to cerebellum in anesthetized cynomolgus monkey after 85 mins postinjection", "type": "ADME, organism-based, Macaca fascicularis", "details": "in vivo", "values": [{"molecule": "O=C(OCC[18F])C1C2CCC(CC1c1cccc(/C=C\\Br)c1)N2", "note": "(centres undefined)", "Ratio": 1.5}]}, {"tested_on": "not listed separately", "experiment": "Drug uptake in anesthetized cynomolgus monkey brain occipital lobe after 6.5 mins postinjection", "type": "ADME, organism-based, Macaca fascicularis", "design": "unit not given here", "details": "in vivo", "values": [{"molecule": "O=C(OCC[18F])C1C2CCC(CC1c1cccc(/C=C\\Br)c1)N2", "note": "(centres undefined)", "Drug uptake": 2.17}]}, {"tested_on": "not listed separately", "experiment": "Drug uptake in anesthetized cynomolgus monkey brain cerebellum after 1.5 mins postinjection", "type": "ADME, organism-based, Macaca fascicularis", "details": "in vivo, 0.025 h", "values": [{"molecule": "O=C(OCC[18F])C1C2CCC(CC1c1cccc(/C=C\\Br)c1)N2", "note": "(centres undefined)", "Drug uptake": 0.06}]}]}
